Experimental data published in BindingDB's records for doi:10.1016/j.bioorg.2016.01.003 (Panjab University, 2016).

Columns and labels:
Assay in all cases: Radioligand Binding Assay
Adenosine receptor A2b = biological target: T1, Adenosine receptor A2b (Homo sapiens, UniProt P29275)
T1 sequence (P29275 whole entry): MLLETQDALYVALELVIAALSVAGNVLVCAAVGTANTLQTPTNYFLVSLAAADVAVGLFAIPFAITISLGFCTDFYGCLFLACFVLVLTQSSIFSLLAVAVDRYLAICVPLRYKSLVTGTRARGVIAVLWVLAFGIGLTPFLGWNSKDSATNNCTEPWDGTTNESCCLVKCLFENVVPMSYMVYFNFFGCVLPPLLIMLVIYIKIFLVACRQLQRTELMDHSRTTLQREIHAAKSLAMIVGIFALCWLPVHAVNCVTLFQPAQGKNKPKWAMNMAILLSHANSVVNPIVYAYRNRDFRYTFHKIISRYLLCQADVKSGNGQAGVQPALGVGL

Adenosine receptor A2a = Adenosine receptor A2a (Homo sapiens, UniProt P29274)
Chain of Adenosine receptor A2a (P29274 whole entry): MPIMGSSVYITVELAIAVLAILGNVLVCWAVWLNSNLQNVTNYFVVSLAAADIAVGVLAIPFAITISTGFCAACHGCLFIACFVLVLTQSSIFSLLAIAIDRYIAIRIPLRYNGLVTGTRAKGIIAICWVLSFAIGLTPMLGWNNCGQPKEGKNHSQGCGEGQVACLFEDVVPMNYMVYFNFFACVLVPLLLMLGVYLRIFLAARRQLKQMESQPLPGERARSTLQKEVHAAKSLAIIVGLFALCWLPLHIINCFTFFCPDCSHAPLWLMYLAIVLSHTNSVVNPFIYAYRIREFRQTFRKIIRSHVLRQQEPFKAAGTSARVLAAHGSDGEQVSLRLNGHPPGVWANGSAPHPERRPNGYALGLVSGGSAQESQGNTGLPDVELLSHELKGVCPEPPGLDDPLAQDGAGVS
Description: (§1) Dissociation constants at A1, A2A and A3 receptors (Ki-values) were determined in radioligand competition experiments as reported earlier [19,20]. All binding experiments were done in a microplate format utilizing a 96-well microplate filtration system (Millipore Multiscreen MAFC). As radioligands the agonists [3H]CCPA (1 nM) for A1, [3H]NECA (10 nM) for A2A, and [3H]HEMADO (1 nM) for A3 receptors were used. Samples were incubated with 10 µg of membrane protein for 3 h at 25 °C, filtered through the built-in filter at the bottom of the wells and washed three times with […] of ice-cold binding buffer. After addition of 20 µl of scintillator to the dried filter plates samples were counted in a Wallac Micro-Beta counter. Nonspecific binding was determined in the presence of 1 mM theophylline ([3H]CCPA) or […] (N6-phenylisopropyladenosine; [3H]NECA and [3H] HEMADO).

Adenosine receptor A1 = biological target: T2, Adenosine receptor A1 (Homo sapiens, UniProt P30542)
T2 sequence (P30542 whole entry): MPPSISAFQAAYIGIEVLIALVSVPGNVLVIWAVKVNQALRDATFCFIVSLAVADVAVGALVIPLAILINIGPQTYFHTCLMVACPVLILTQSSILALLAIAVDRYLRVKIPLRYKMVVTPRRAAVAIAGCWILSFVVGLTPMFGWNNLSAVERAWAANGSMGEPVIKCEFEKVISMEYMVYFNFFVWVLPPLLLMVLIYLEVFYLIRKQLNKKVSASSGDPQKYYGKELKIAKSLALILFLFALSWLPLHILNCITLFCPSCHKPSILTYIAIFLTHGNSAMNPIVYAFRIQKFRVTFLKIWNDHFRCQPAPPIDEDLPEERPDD
Description: as §1

| SMILES | Ki (Adenosine receptor A2b) | Ki (Adenosine receptor A2a) | Ki (Adenosine receptor A1) |
| --- | --- | --- | --- |
| COc1cc(-c2nc3c([nH]2)c(=O)n(C)c(=O)n3C)ccc1OCC(=O)n1ccnc1 [1,3-Dimethyl-8-[{4-(2-(imidazol-1-yl)-2-oxoethoxy)-3-methoxy}-phenyl]xanthine (15h, RB-390)] | > 30000 nM | 7740 nM | > 30000 nM |
| COC(=O)COc1ccc(-c2nc3c([nH]2)c(=O)n(C)c(=O)n3C)cc1OC [1,3-Dimethyl-8-[{4-(2-methoxy-2-oxoethoxy)-3-methoxy}-phenyl]xanthine (15, RB-384)] | > 10000 nM | 4380 nM | > 30000 nM |
| CCN(CC)CCNC(=O)COc1cccc(-c2nc3c([nH]2)c(=O)n(C)c(=O)n3C)c1 [8-[3-{2-(Diethylaminoethylamino)-2-oxoethoxy}-phenyl]-1,3-dimethylxanthine (14b, RB-378)] | 4910 nM | 179 nM | 1220 nM |
| CCN(CC)CCNC(=O)COc1ccc(-c2nc3c([nH]2)c(=O)n(C)c(=O)n3C)cc1 [8-[4-{2-(Diethylaminoethylamino)-2-oxoethoxy}-phenyl]-1,3-dimethylxanthine (13b, RB-421)] | 968 nM | 63 nM | 298 nM |
| CCN(CC)CCNC(=O)COc1cc(-c2nc3c([nH]2)c(=O)n(C)c(=O)n3C)ccc1OC [8-[{3-(2-(Diethylaminoethylamino)-2-oxoethoxy)-4-methoxy}phenyl]-1,3-dimethylxanthine (16b, RB-411)] | 8050 nM | 126 nM | 1970 nM |
| CCN(CC)CCNC(=O)COc1ccc(-c2nc3c([nH]2)c(=O)n(C)c(=O)n3C)cc1OC [8-[{4-(2-(Diethylaminoethylamino)-2-oxoethoxy)-3-methoxy}-phenyl]-1,3-dimethyl-xanthine (15b, RB-388)] | > 10000 nM | 692 nM | > 10000 nM |
